In patent US20260242391A1 (priority 2023, published 2026) one finds EC50 and IC50 data, which are given here for 8 compounds.

The subject of data set [1] is HL-60. The data set can be described thus: HL-60 differentiation potency. Type of data set: cell-based. To be noted: Homo sapiens.
Data set [2] is described as follows: in vitro. To be noted: human.
Data set [3] has as its system HL-60. Put plainly: HL-60 differentiation potency. In kind it is cell-based. To be noted: Homo sapiens. The source holds these as a separate data set.
The nature of data set [4]: in vitro. Particulars: human. This is another data set of the same source.

pEC50, pIC50: −log10 of the molar value.

What is called pEC50 is −log10 of the EC50, conventionally taken in molar units. Low readings indicate a high EC50, high ones a low EC50. Usually pIC50 stands for the negative decadic logarithm of the IC50, by convention in mol/L. A high value points to a small IC50. Take `C[C@H]1[C@@H](OCc2ccc(OCC(=O)O)cc2)O[C@@H]2OC3(C)CC[C@H]4[C@H](C)CC[C@@H]1[C@@]24OO3` (stereo in doubt) [Compound 274, 2-(4-((((3R,5aS,6R,8aS, 9R,10S,12R, 12aR)-3,6,9-trimethyldeca-hydro-12H-3,12-epoxy[1,2]dioxepino[4,3-i]isochromen-10-yl)oxy)methyl)phenoxy)acetic acid]: the pEC50 in data set [1] is 6.07. Moreover, the pIC50 in data set [2] was less than 4.70.
With `C[C@H]1[C@@H](Oc2ccc(O[C@H]3C[C@@H](C(=O)O)C3)cc2)O[C@@H]2O[C@@]3(C)CC[C@H]4[C@H](C)CC[C@@H]1[C@@]24OO3` [Compound 182, (1R,3s)-3-(4-(((3R,5aS,6R,8aS, 9R,10S,12R, 12aR)-3,6,9-trimethyldeca-hydro-12H-3,12-epoxy[1,2]dioxepino[4,3-i]isochromen-10-yl)oxy)phenoxy) cyclobutane-1-carboxylic acid], the pEC50 in data set [3] was 7.62. The compound also had a pIC50 in data set [4] (HL-60 cells) of 6.00.
Consider `C[C@H]1[C@@H](Oc2ccc(CC(=O)O)cc2C(F)(F)F)O[C@@H]2O[C@@]3(C)CC[C@H]4[C@H](C)CC[C@@H]1[C@@]24OO3` [Compound 183, 2-(3-(trifluoromethyl)-4-(((3R,5aS,6R, 8aS,9R,10S,12R, 12aR)-3,6,9-trimethyldeca-hydro-12H-3,12-epoxy[1,2]dioxepino[4,3-i]isochromen-10-yl)oxy)phenyl) acetic acid], for which the pEC50 in data set [3] is 7.33. Moreover, in data set [4], the pIC50 is 6.05.
In turn, `C[C@H]1[C@@H](Oc2ccc(C(=O)N[C@H](C(=O)O)C(C)(C)C)cc2)O[C@@H]2O[C@@]3(C)CC[C@H]4[C@H](C)CC[C@@H]1[C@@]24OO3` [Compound 184, (S)-3,3-dimethyl-2-(4-(((3R,5aS,6R,8aS, 9R,10S,12R, 12aR)-3,6,9-trimethyldeca-hydro-12H-3,12-epoxy[1,2]dioxepino[4,3-i]isochromen-10-yl)oxy)benzamido) butanoic acid] showed a pEC50 in data set [3] of 7.77. The compound further gave a pIC50 in data set [4] of 6.10.
In data set [1], `C[C@H]1[C@@H](OC[C@H]2CC[C@@H](C(=O)NC(C(=O)O)C3CCC3)CC2)O[C@@H]2O[C@@]3(C)CC[C@H]4[C@H](C)CC[C@@H]1[C@@]24OO3` (stereo partly drawn) [Compound 185, (S)-2-cyclobutyl-2-((1R,4R)-4-((((3R,5aS,6R,8aS, 9R,10S,12R, 12aR)-3,6,9-trimethyldeca-hydro-12H-3,12-epoxy[1,2]dioxepino[4,3-i]isochromen-10-yl)oxy)methyl)cyclohexane-1-carboxamido) acetic acid] showed a pEC50 of 7.30. In data set [2], this compound gave a pIC50 of less than 4.70.
The corresponding values for `C[C@H]1[C@@H](Oc2cc(Cl)cc(CC(=O)O)c2)O[C@@H]2O[C@@]3(C)CC[C@H]4[C@H](C)CC[C@@H]1[C@@]24OO3` [Compound 186, 2-(3-chloro-5-(((3R,5aS,6R,8aS, 9R,10S,12R, 12aR)-3,6,9-trimethyldeca-hydro-12H-3,12-epoxy[1,2]dioxepino[4,3-i]isochromen-10-yl)oxy)phenyl) acetic acid] are 7.20 and 5.40.
Consider `C[C@H]1[C@@H](O[C@H]2CC[C@@H](C(=O)N[C@H]3CC[C@@H](C(=O)O)C3)CC2)O[C@@H]2O[C@@]3(C)CC[C@H]4[C@H](C)CC[C@@H]1[C@@]24OO3` [Compound 202, (1R,3S)-3-((1R,4R)-4-(((3R,5aS,6R,8aS, 9R,10S,12R, 12aR)-3,6,9-trimethyldeca-hydro-12H-3,12-epoxy[1,2]dioxepino[4,3-i]isochromen-10-yl)oxy)cyclo-hexane-1-carboxamido) cyclopentane-carboxylic acid], for which, in data set [1], the pEC50 is 5.40.
Still for that read-out and setting: for `C[C@H]1[C@@H](Oc2ccc(C(=O)N[C@H]3C[C@@H](C(=O)O)C3)cc2)O[C@@H]2O[C@@]3(C)CC[C@H]4[C@H](C)CC[C@@H]1[C@@]24OO3` [Compound 233, (1R,3s)-3-(4-(((3R,5aS,6R,8aS, 9R,10S,12R, 12aR)-3,6,9-trimethyldeca-hydro-12H-3,12-epoxy[1,2]dioxepino[4,3-i]isochromen-10-yl)oxy)benzamido) cyclobutane-1-carboxylic acid] the value was 7.03.
